Each structure is given as a SMILES string. Where two headings read alike, the source gives them in different places.

This is an account of results in publication PMC6269909, “Investigating the Antioxidant and Acetylcholinesterase Inhibition Activities of Gossypium herbaceam” (Molecules, 2013).

The nature of assay [1]: DPPH radical scavenging assay. Type of assay: biochemical. Particulars: Table 2, mean of three replicates, read-out: IC50 for inhibition of DPPH radical formation. An excerpt: (§1) The DPPH radical activity test was used to measure the hydrogen atom or electron donor capacity of the samples to the stable radical DPPH formed in liquid solution. Thus, it measures the capacity of the samples to scavenge free radicals in solution [17]. Proton radical scavenging is an important attribute of antioxidants. […] ABTS, a protonated radical, has characteristic absorbance at 734 nm which decreases with the scavenging of the proton radicals. […]
DPPH is a stable free radical that reacts with compounds that can donate a hydrogen atom. This method is based on the scavenging of DPPH through the addition of a radical species or an antioxidant that decolorizes the DPPH solution. The antioxidant activity is then measured by the extent of decrease in absorption at 515 nm. In brief, a 0.2 mM solution of DPPH in methanol was prepared, and 100 μL of this solution was added to 100 μL of the sample solution in methanol at varying concentrations. The solutions in the 96 well micro plates were shaken well and incubated in the dark for 30 minutes at room temperature. The absorbance was measured at 515 nm. A large decrease in the absorbance of the reaction mixture indicates substantial free radical scavenging activity of the compound. DPPH radical scavenging activity (%) = [(Abscontrol − Abscompound)]/(Abscontrol)] × 100 where Abscontrol is the absorbance of DPPH radical + methanol; Abscompound is the absorbance of DPPH radical + compound/standard.

A short description of assay [2]: ABTS radical scavenging assay. Type of assay: biochemical. Particulars: Table 2, mean of three replicates, read-out: IC50 for inhibition of ABTS radical formation.
From the text: as §1
The ABTS radical scavenging method was developed by Rice-Evans and Miller in 1994 and was then modified by Rice-Evants et al. in 1999. The modification is based on the activation of metmyo-globin with hydrogen peroxide in the presence of ABTS^•+ to produce a radical cation. This improved method generates a blue/green ABTS^•+ chromophore via the reaction of ABTS and potassium persulfate and is now widely used. The antioxidant activity is then measured by the decrease in absorption at 734 nm. In brief, ABTS radical cation (ABTS^•+) was produced by reacting ABTS stocking solution with […] potassium persulfate and kept in the dark at room temperature for 12–16 h before use. The samples containing the ABTS^•+ solution were diluted with methanol to obtain an absorbance of 0.700 (±0.02) at 734 nm and equilibrated at 30 °C. The ABTS^•+ solution was freshly prepared for each assay. Different concentrations of compounds (16 μL) were allowed to react with 184 μL of the ABTS^•+ solution and the absorbance was taken at 734 nm after 7 min using spectrophotometer. The ABTS^•+ scavenging capacity of the compound percentage inhibition was calculated using formula: ABTS radical scavenging activity (%) = [(Abscontrol − Abscompound)]/(Abscontrol)] × 100, where Abscontrol is the absorbance of ABTS radical + methanol; Abscompound is the absorbance of ABTS radical + compound/standard.

Assay [3] is described as follows: Lipid peroxidation assay (TBARS), egg yolk homogenates. Type of assay: biochemical. Particulars: Table 2; egg yolk homogenate, FeSO4; mean of three replicates; read-out: IC50 for inhibition of peroxidation of lipids, estimated as thiobarbituric acid reactive substances. The method, then: Lipid peroxidation involves the formation and propagation of lipid radicals with numerous deleterious effects, including destruction of membrane lipids, metabolic disorders and inflammation, and production of malondialdehyde (MDA) is a hallmark of this process. Inhibition of lipid peroxidation was assessed by amount of MDA produced. Lipids in egg yolk undergo rapid nonenzymatic peroxidation in the presence of ferrous sulphate. […] Phenolics present in plant sources have received considerable attention over the past decade because of their potential to prevent lipid peroxidation and diseases associated with it.
A modified thiobarbituric acid-reactive species (TBARS) assay was used to measure the lipid peroxide formed, using egg yolk homogenates as lipid-rich media. Adapted TBARS method was employed to measure the antioxidant capacity. Briefly, egg homogenate (100 μL of 1:25, v/v in phosphate-buffered saline (PBS) PH 7.4) and 10 μL of different concentrations of sample were added to a test tube as well as added 25 mmol/L freshly prepared FeSO4 made up to 300 μL with PBS. The homogenate was incubated at 37 °C for 15 min and then the reaction was stopped by adding 50 μL 15% w/v trichloroacetic acid (TCA) and centrifugation (3,500 rpm) for 15 min. An aliquot of 200 μL from supernatant was mixed with 100 μL thiobarbituric acid (TBA) and heated at 95 °C for 30 min.

In assay [4] the target is T1, Acetylcholinesterase (AChE) type VI-S from electric eel (Electrophorus electricus, UniProt O42275).
T1 construct: purchased Sigma (St. Louis, MO, USA)
The assay is described as follows: biochemical. From the text: Acetylcholinesterase (AChE) type VI-S from electric eel, 5-5′-dithiobis-[2-nitrobenzoicacid] (DTNB), 1-1-diphenyl-2-picrylhydrazyl (DPPH), 2,2'-azinobis-(3-ethylbenzothiazoline-6-sulfonic acid) (ABTS), acetylthiocholine iodide (AChI), dimethyl sulfoxide (DMSO), ferrous sulfate (FeSO4·7H2O), thiobarbituric acid (TBA), trichloroacetic acid (TCA), potassium ferricyanide were obtained from Sigma (St. Louis, MO, USA). L-3-ketothreohexuronic acid lactone (vitamin C) and huperzine A were purchased from the National Institutes for Food and Drug Control, Beijing, China. All the other reagents were of analytical grade.
Inhibition of acetyl cholinesterase activity of samples was measured by the micro-plate assay adapted. AChE inhibitory activity was measured by slightly modifying the spectrophotometric method from the literature which was initially developed by Ellman. Briefly, in this method, 100 μL of […] sodium phosphate buffer (pH = 8.0), 20 μL of DTNB, 20 μL of test solution and 2 μL of AChE solution were added using a multichannel automatic pipette into a 96-well micro plate and incubated for 15 min at 25 °C.

The subject of the next assay is PC12 cells. Put plainly: tBHP exposure in PC12 cells, cell viability (MTT). Type of assay: cell-based, Rat. Particulars: for Protection against tBHP-induced cell death in PC12 cells (cell viability, MTT): pre-treated 100 μM for 24 h, then tBHP 200 μM for 3 h, p < 0.05. The procedure: tBHP caused a reduction in cell viability with an IC50 value for PC12 cells death at 200 μM. PC12 cells were an established model of nerve growth factor (NGF) - induced neurite formation. […] In the control sample, the value of cell viability was set to be 100%.
Rat pheochromocytoma cells (PC12) cells were kindly donated by Professor Dong T. X. (The Hong Kong University of Science and Technology, Hong Kong, China). PC12 cells were maintained in 75 cm culture flasks containing 20 mL of RPMI-1640 media supplemented with 1% FBS, 1% L-glutamine, 1% non-essential amino acids and 1% penicillin/streptomycin. Cells were maintained in an incubator at 37 °C with 5% CO2. Experiments and cell maintenances were performed in a laminar flow hood under sterile conditions. Cells were passaged every 4–5 days and detached from flasks using 1× trypsin EDTA. Cell counts were performed using trypan blue to stain non viable cells, which were excluded from the count. Ninety-six well plates were used for cell viability experiments. The cells were then allowed to equilibrate for 24 h before the experiment.
H2O2 is a well established pro-oxidant in PC12 cells over the concentration range used. tBHP shares some of the same properties of H2O2 but generates a more shallow neurotoxicity response over a wider concentration range than H2O2 in PC12 cells and elicits greater lipid peroxidation. […] For anti-oxidation effect, the cultures were treated with tBHP (200 μM) for 3 h. Cultures were subjected to cell viability test using the colorimetric MTT assay. Purple crystal inside the cells was dissolved by DMSO and measured by absorbance at 570 nm.

Where [5] appears, read: Table 2, mean of three replicates, read-out: IC50 for inhibition of AChE.

T1 sequence (O42275 24-633): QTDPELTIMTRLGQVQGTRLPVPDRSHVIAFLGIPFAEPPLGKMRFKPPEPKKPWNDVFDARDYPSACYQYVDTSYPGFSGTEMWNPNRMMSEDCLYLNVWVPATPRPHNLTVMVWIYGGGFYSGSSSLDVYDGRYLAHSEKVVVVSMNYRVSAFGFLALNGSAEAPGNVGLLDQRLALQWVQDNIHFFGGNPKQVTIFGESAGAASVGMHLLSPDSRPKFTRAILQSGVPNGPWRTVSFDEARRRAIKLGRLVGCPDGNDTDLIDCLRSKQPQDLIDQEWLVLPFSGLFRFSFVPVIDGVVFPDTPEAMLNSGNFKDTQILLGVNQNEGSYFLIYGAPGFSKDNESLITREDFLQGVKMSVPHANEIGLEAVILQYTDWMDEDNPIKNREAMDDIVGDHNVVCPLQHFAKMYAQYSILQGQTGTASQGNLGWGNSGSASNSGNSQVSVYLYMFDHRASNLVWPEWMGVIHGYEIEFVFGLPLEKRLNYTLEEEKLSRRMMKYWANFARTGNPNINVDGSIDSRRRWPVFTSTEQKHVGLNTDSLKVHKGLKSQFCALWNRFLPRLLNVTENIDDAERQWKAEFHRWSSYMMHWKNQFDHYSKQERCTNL

With `O=c1c(O)c(-c2ccc(O)c(O[C@@H]3O[C@H](CO)[C@@H](O)[C@H](O)[C@H]3O)c2)oc2cc(O)cc(O)c12` [Quercetin-3′-O-β-D-glucoside], the IC50 in assay [1] was 3.75 µM; in assay [2], 34.7 µM; in assay [3], 8.9 µM; in assay [4] (setting [5]) it was 88.6 µM. The “Protection against tBHP-induced cell death in PC12 cells (cell viability, MTT)” value (from here on “Protection”) with PC12 cells is “could exert the anti-oxidation effect in protecting the tBHP-induced cell death”.

As for `COc1cc(-c2oc3cc(O[C@@H]4O[C@H](CO)[C@@H](O)[C@H](O)[C@H]4O)cc(O)c3c(=O)c2O)ccc1O` [Isorhamnetin-7-O-β-D-glucopyranoside], the IC50 in assay [1] is 1.73 µM; in assay [2], 21.8 µM; in assay [3], 7.2 µM; in assay [4] (setting [5]), 55.7 µM.

`O=C1O[C@H]([C@@H](O)CO)C(O)=C1O` [Vit C, L-3-ketothreohexuronic acid lactone, reference compound]: in the assay on PC12 cells, the “Protection” value is “protect the cells against oxidation significantly”.

For the compound `O=c1c(O[C@@H]2O[C@H](CO)[C@@H](O)[C@H](O)[C@H]2O)c(-c2ccc(O)c(O)c2)oc2cc(O)cc(O)c12` [Isoquercetin], the IC50 in assay [1] was 3.65 µM; in assay [2], 26.9 µM; in assay [3], 8.81 µM; in assay [4] it was 57 µM.

As for `CC(C)(C)OO` [tBHP, tertiary butyl hydroperoxide, reference compound], in the assay on PC12 cells (reduction in cell viability by tBHP, read-out: IC50 value for PC12 cells death), the IC50 came out at 200 µM.

In the case of `O=c1c(O)c(-c2ccc(O)cc2)oc2cc(O)cc(O)c12` [Kaempferol], the IC50 in assay [1] amounted to 5.52 µM; in assay [2], 41.4 µM. Moreover, the “Protection” value with PC12 cells was “could exert the anti-oxidation effect in protecting the tBHP-induced cell death”.

Turning to `O=c1c(O)c(-c2ccc(O)c(O)c2)oc2cc(OC3OC(CO)C(O)C(O)C3O)cc(O)c12` (stereo not drawn) [Quercimeritin], the IC50 in assay [1] is 3.69 µM; in assay [2], 24.9 µM; in assay [3], 6.85 µM; in assay [4], 52.3 µM. In the assay with PC12 cells, the “Protection” value is given as “could exert the anti-oxidation effect in protecting the tBHP-induced cell death”.

For `O=c1c(O[C@@H]2O[C@H](CO)[C@@H](O)[C@H](O)[C@H]2O)c(-c2ccc(O)c(O)c2)oc2cc(O[C@@H]3O[C@H](CO)[C@@H](O)[C@H](O)[C@H]3O)cc(O)c12` [Quercetin-3,7-di-O-β-D-glucopyranosid], the IC50 in assay [1] was 5.48 µM; in assay [2] it was 50.8 µM; in assay [3] it was 33.4 µM; in assay [4] (setting [5]), 67.1 µM.

For `O=c1c(O)c(-c2ccc(O)c(O)c2)oc2cc(O)cc(O)c12` [Quercetin], the IC50 in assay [1] (listed as quercetin) was 19.6 µM; in assay [1] it was 0.84 µM; in assay [2] (listed as quercetin) it was 0.84 µM; in assay [2], 19.6 µM; in assay [3] it was 13.1 µM.

Regarding `O=c1c(O[C@@H]2O[C@H](CO)[C@H](O)[C@H](O)[C@H]2O)c(-c2ccc(O)c(O)c2)oc2cc(O)cc(O)c12` [Hyperoside], the IC50 in assay [1] was 11.2 µM; in assay [2], 113 µM; in assay [3], 7.47 µM; in assay [4] it was 94.6 µM.
